Source: BindingDB's records for doi:10.1016/j.bmcl.2010.07.026 (Daiichi Sankyo, 2010)

Molecular target: 3-phosphoinositide-dependent protein kinase 1 (Homo sapiens) (UniProt O15530)
Test: Inhibition of recombinant PDK1 after 15 mins

Row | SMILES | IC50
1 | O=C(NCCN1CCCC1)c1ccc(-c2cnc3ccc(NCc4ccc(Cl)c(Cl)c4)nn23)cc1 [4-(6-(3,4-dichlorobenzylamino)imidazo[1,2-b]pyridazin-3-yl)-N-(2-(pyrrolidin-1-yl)ethyl)benzamide] | > 100 µM
2 | O=C(NC[C@@H]1CCCN1)c1ccc(-c2cnc3ccc(NCC4CC4)nn23)cc1 [(S)-4-(6-(cyclopropylmethylamino)imidazo[1,2-b]pyridazin-3-yl)-N-(pyrrolidin-2-ylmethyl)benzamide] | > 100 µM
3 | O=C(NC[C@@H]1CCCN1)c1ccc(-c2cnc3ccc(NCc4ccc(Cl)c(Cl)c4)nn23)cc1 [(S)-4-(6-(3,4-dichlorobenzylamino)imidazo[1,2-b]pyridazin-3-yl)-N-(pyrrolidin-2-ylmethyl)benzamide] | > 100 µM

Continued, values first:

Row | IC50 | SMILES
4 | > 100 µM | CN(C)CCNC(=O)c1ccc(-c2cnc3ccc(NCC4CC4)nn23)cc1 [4-(6-(cyclopropylmethylamino)imidazo[1,2-b]pyridazin-3-yl)-N-(2-(dimethylamino)ethyl)benzamide]
5 | > 100 µM | O=C(NC[C@@H]1CCCN1)c1ccc(-c2cnc3ccc(NCc4cccc(Cl)c4)nn23)cc1 [(S)-4-(6-(3-chlorobenzylamino)imidazo[1,2-b]pyridazin-3-yl)-N-(pyrrolidin-2-ylmethyl)benzamide]
